Laboratory results taken from patent publication US12077503B2, “Substituted cyclic amides and their use as herbicides” (FMC CORPORATION, priority 2015, dated 2024).

Experiments:
[1] = tested on: giant foxtail (Setaria faberii); test: Test A postemergence; type: in vivo; settings: Setaria faberi, post-emergence, 240 h, postemergence; for pest or weed control at 125 g/ha: 125 g ai/ha, visual injury vs untreated controls after approx. 10 d, 0 = no effect, 100 = complete control, read-out: Foxtail, Giant plant response rating (0 to 100 scale); for pest or weed control at 500 g/ha: 500 g ai/ha, 0 to 100 scale, 0 is no effect, 100 is complete control, read-out: Foxtail, Giant plant response rating
Summary of the method: (§1)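 Preemergence directed soil spray on seeded pots, or postemergence application to plants 2–10 cm, one- to two-leaf. Solvent mixture non-phytotoxic, with surfactant. Scored ~10 d later, visually, 0–100 vs untreated.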

[2] = tested on: ryegrass, Italian (Italian ryegrass, Lolium multiflorum); test: Test A postemergence; type: in vivo; settings: Lolium multiflorum, post-emergence, 240 h, postemergence; for pest or weed control at 125 g/ha: 125 g ai/ha, visual injury vs untreated controls after approx. 10 d, 0 = no effect, 100 = complete control, read-out: Ryegrass, Italian plant response rating (0 to 100 scale); for pest or weed control at 500 g/ha: 500 g ai/ha, 0 to 100 scale, 0 is no effect, 100 is complete control, read-out: Ryegrass, Italian plant response rating
Summary of the method: as §1

[3] = tested on: corn (Zea mays); test: Test A postemergence; type: in vivo; settings: Zea mays, post-emergence, 240 h, postemergence; for plant injury at 125 g/ha: 125 g ai/ha, visual injury vs untreated controls after approx. 10 d, 0 = no effect, 100 = complete control, read-out: Corn plant response rating (0 to 100 scale); for plant injury at 500 g/ha: 500 g ai/ha, 0 to 100 scale, 0 is no effect, 100 is complete control, read-out: Corn plant response rating
Summary of the method: as §1

[4] = tested on: ragweed (common ragweed, Ambrosia elatior); test: Test A postemergence; type: in vivo; settings: Ambrosia artemisiifolia, post-emergence, 240 h, postemergence; for pest or weed control at 125 g/ha: 125 g ai/ha, visual injury vs untreated controls after approx. 10 d, 0 = no effect, 100 = complete control, read-out: Ragweed plant response rating (0 to 100 scale); for pest or weed control at 500 g/ha: 500 g ai/ha, 0 to 100 scale, 0 is no effect, 100 is complete control, read-out: Ragweed plant response rating
Summary of the method: as §1

[5] = tested on: wheat (Triticum aestivum); test: Test A postemergence; type: in vivo; settings: Triticum aestivum, post-emergence, 240 h, postemergence; for plant injury at 125 g/ha: 125 g ai/ha, visual injury vs untreated controls after approx. 10 d, 0 = no effect, 100 = complete control, read-out: Wheat plant response rating (0 to 100 scale); for plant injury at 500 g/ha: 500 g ai/ha, 0 to 100 scale, 0 is no effect, 100 is complete control, read-out: Wheat plant response rating
Summary of the method: as §1

[6] = tested on: Galium (catchweed bedstraw, Galium aparine); test: Test A postemergence; type: in vivo; settings: Galium, post-emergence, 240 h, postemergence; for pest or weed control at 125 g/ha: 125 g ai/ha, visual injury vs untreated controls after approx. 10 d, 0 = no effect, 100 = complete control, read-out: Galium plant response rating (0 to 100 scale); for pest or weed control at 500 g/ha: 500 g ai/ha, 0 to 100 scale, 0 is no effect, 100 is complete control, read-out: Galium plant response rating
Summary of the method: as §1

Row | melting point [°C] | Compound | pest or weed control at 125 g/ha [1] [%] | pest or weed control at 500 g/ha [1] [%] | pest or weed control at 125 g/ha [2] [%] | pest or weed control at 500 g/ha [2] [%] | plant injury at 125 g/ha [3] [%] | plant injury at 500 g/ha [3] [%] | pest or weed control at 125 g/ha [4] [%] | pest or weed control at 500 g/ha [4] [%] | plant injury at 125 g/ha [5] [%] | plant injury at 500 g/ha [5] [%] | pest or weed control at 125 g/ha [6] [%] | pest or weed control at 500 g/ha [6] [%]
1 | 117 to 121 | CCc1cc([C@H]2CN(C)C(=O)[C@@H]2C(=O)Nc2ccccc2F)cs1 [Compound 1156] | 90 | 90 | 20 | 30 | 20 | 60 | 0 | 0 | 20 | 50 | 40 | 50
2 | 141 to 143 | O=C1NCC[C@H](c2cccc(Cl)c2)[C@H]1C(=O)Nc1ccccc1F [Compound 1159] | 40 | 70 | 0 | 0 | 0 | 20 | 0 | 0 | 0 | 0 | 20 | 20
3 | 139.5 to 153 | O=C1NC[C@H](c2nccs2)[C@H]1C(=O)Nc1cccc(F)c1F [Compound 1182] | 0 | 0 | 0 | 0 | 0 | 0 | 0 | 0 | 0 | 0 | 0 | 0
